Results published in patent USRE48461E1, “Modulation of androgen receptor expression” (Ionis Pharmaceuticals, Inc., priority 2012, dated 2021).
Oligonucleotides are written 5' to 3', each unit as a sugar letter and its base; * is a phosphorothioate linkage, no mark a phosphodiester; rarer units and linkages stand in square brackets, end groups in braces. Plain capitals give the bases only. k = constrained ethyl (cEt); [5mC] = 5-methylcytosine; d = 2'-deoxy (DNA)

Columns and labels:
AR mRNA [1] = assay: Dose-dependent antisense inhibition of human AR in HuVEC cells (electroporation, qRT-PCR RTS3559, IC50); assay type: cell-based
Method: (§1) After a treatment period of approximately 16 hours, RNA was isolated from the cells and AR mRNA levels were measured by quantitative real-time PCR. Human AR primer probe set RTS3559 was used to measure mRNA levels. AR mRNA levels were adjusted according to total RNA content, as measured by RIBOGREEN®. […] The antisense oligonucleotides were tested in a series of experiments that had similar culture conditions.
as §1, §1, §1, §1
(§2) After a treatment period of approximately 16 hours, RNA was isolated from the cells and AR mRNA levels were measured by quantitative real-time PCR. Human AR primer probe set RTS3559 was used to measure mRNA levels. AR mRNA levels were adjusted according to total RNA content, as measured by RIBOGREEN®.
as §2

AR mRNA [2] = assay: Antisense inhibition of human AR in HuVEC cells, single concentration (electroporation, qRT-PCR RTS3559); assay type: cell-based
Method: Antisense oligonucleotides were designed targeting an AR nucleic acid and were tested for their effects on AR mRNA in vitro. The antisense oligonucleotides were tested in a series of experiments that had similar culture conditions. […] Human primer probe set RTS3559 (forward sequence [NT], designated herein as SEQ ID NO: 9; reverse sequence [NT], designated herein as SEQ ID NO: 10; probe sequence [NT], designated herein as SEQ ID NO: 11) was used to measure mRNA levels. AR mRNA levels were adjusted according to total RNA content, as measured by RIBOGREEN®. […] A total of 155 oligonucleotides were tested. Additional antisense oligonucleotides were designed targeting an AR nucleic acid and were tested for their effects on AR mRNA in vitro. […] Human primer probe set RTS3559 was used to measure mRNA levels. AR mRNA levels were adjusted according to total RNA content, as measured by RIBOGREEN®. […] A total of 82 oligonucleotides were tested. Additional antisense oligonucleotides were designed targeting an AR nucleic acid and were tested for their effects on AR mRNA in vitro. […] Human primer probe set RTS3559 was used to measure mRNA levels. AR mRNA levels were adjusted according to total RNA content, as measured by RIBOGREEN®. […] A total of 40 oligonucleotides were tested. Additional antisense oligonucleotides were designed targeting an AR nucleic acid and were tested for their effects on AR mRNA in vitro. […] Human primer probe set RTS3559 was used to measure mRNA levels. AR mRNA levels were adjusted according to total RNA content, as measured by RIBOGREEN®. […] A total of 75 oligonucleotides were tested. Additional antisense oligonucleotides were designed targeting an AR nucleic acid and were tested for their effects on AR mRNA in vitro. […] Human primer probe set RTS3559 was used to measure mRNA levels. AR mRNA levels were adjusted according to total RNA content, as measured by RIBOGREEN®. […] A total of 616 oligonucleotides were tested. Additional antisense oligonucleotides were designed targeting an AR nucleic acid and were tested for their effects on AR mRNA in vitro. […] Human primer probe set RTS3559 was used to measure mRNA levels. AR mRNA levels were adjusted according to total RNA content, as measured by RIBOGREEN®. […] A total of 385 oligonucleotides were tested.

[3] = Table 35, 46.9 nM, HuVEC, electroporation, approximately 16 hours
[4] = Table 35, 187.5 nM, HuVEC, electroporation, approximately 16 hours
[5] = Table 35, 750.0 nM, HuVEC, electroporation, approximately 16 hours
[6] = Table 35, 3000.0 nM, HuVEC, electroporation, approximately 16 hours
[7] = Table 35, HuVEC, electroporation, approximately 16 hours
[8] = Table 24, 1,000 nM oligonucleotide, electroporation, approximately 24 hours, relative to untreated control
[9] = Table 36, 46.9 nM, HuVEC, electroporation, approximately 16 hours
[10] = Table 36, 187.5 nM, HuVEC, electroporation, approximately 16 hours
[11] = Table 36, 750.0 nM, HuVEC, electroporation, approximately 16 hours
[12] = Table 36, 3000.0 nM, HuVEC, electroporation, approximately 16 hours
[13] = Table 36, HuVEC, electroporation, approximately 16 hours

“583933 (k[5mC]*kA*kG*d[5mC]*dG*dG*dG*dT*dT*d[5mC]*dT*d[5mC]*d[5mC]*kA*kG*k[5mC]; antisense) [compound 583933]” was tested, and the “percent inhibition of AR, 46.9 nM” value (AR mRNA [1]; Table 34, 46.9 nM, HuVEC, electroporation, approximately 16 hours) was 22%, the “percent inhibition of AR, 187.5 nM” value (AR mRNA [1]; Table 34, 187.5 nM, HuVEC, electroporation, approximately 16 hours) was 25% and the “percent inhibition of AR, 750.0 nM” value (AR mRNA [1]; Table 34, 750.0 nM, HuVEC, electroporation, approximately 16 hours) was 56%. For the same substance, the “percent inhibition of AR, 3000.0 nM” value (AR mRNA [1]; Table 34, 3000.0 nM, HuVEC, electroporation, approximately 16 hours) was 81%, the IC50 (AR mRNA [1]; Table 34, HuVEC, electroporation, approximately 16 hours) was 410 nM and the “% inhibition” value (AR mRNA [2]; Table 21, 500 nM oligonucleotide, electroporation, approximately 24 hours, relative to untreated control) was 38%.
For “584152 (kG*kA*kG*dT*dT*dG*dT*dG*dA*dT*dT*dT*d[5mC]*kA*kG*kG; antisense) [compound 584152]”, the “percent inhibition of AR, 46.9 nM” value (AR mRNA [1]; [3]) was 28%, the “percent inhibition of AR, 187.5 nM” value (AR mRNA [1]; [4]) was 59% and the “percent inhibition of AR, 750.0 nM” value (AR mRNA [1]; [5]) was 87%. The “percent inhibition of AR, 3000.0 nM” value (AR mRNA [1]; [6]) was 95%, the IC50 (AR mRNA [1]; [7]) was 110 nM and the “% inhibition” value (AR mRNA [2]; [8]) was 88%.
For “584329 (kG*kG*kT*dT*dA*dT*dG*dG*dT*dT*d[5mC]*dT*dG*kT*k[5mC]*kT; antisense) [compound 584329]”, the “percent inhibition of AR, 46.9 nM” value (AR mRNA [1]; [9]) was 0%, the “percent inhibition of AR, 187.5 nM” value (AR mRNA [1]; [10]) was 17% and the “percent inhibition of AR, 750.0 nM” value (AR mRNA [1]; [11]) was 67%. For the same substance, the “percent inhibition of AR, 3000.0 nM” value (AR mRNA [1]; [12]) was 86%, the IC50 (AR mRNA [1]; [13]) was 460 nM and the “% inhibition” value (AR mRNA [2]; 1,000 nM ASO, ~24 h, Table 26) was 58%.
In the case of “584148 (k[5mC]*kA*kT*dA*dT*dT*dA*dT*dT*dG*dT*dG*d[5mC]*kT*kG*k[5mC]; antisense) [compound 584148]”, the “percent inhibition of AR, 46.9 nM” value (AR mRNA [1]; [3]) is reported as 16%, the “percent inhibition of AR, 187.5 nM” value (AR mRNA [1]; [4]) is reported as 48% and the “percent inhibition of AR, 750.0 nM” value (AR mRNA [1]; [5]) is reported as 79%. For the same substance, the “percent inhibition of AR, 3000.0 nM” value (AR mRNA [1]; [6]) was 95%, the IC50 (AR mRNA [1]; [7]) was 200 nM and the “% inhibition” value (AR mRNA [2]; [8]) was 85%.
“586224 (kT*kT*kG*kA*kT*dT*dT*dA*dA*dT*dG*dG*dT*kT*kG*k[5mC]; antisense) [compound 586224]” was tested, and the “percent inhibition of AR” value (AR mRNA [1]; 46.9 nM, HuVEC, ~16 h, Table 15) was 39%, the “percent inhibition of AR” value (AR mRNA [1]; 187.5 nM, HuVEC, ~16 h, Table 15) was 75% and the “percent inhibition of AR” value (AR mRNA [1]; 750.0 nM, HuVEC, ~16 h, Table 15) was 93%. The “percent inhibition of AR” value (AR mRNA [1]; 3000.0 nM, HuVEC, ~16 h, Table 15) was 98%, the IC50 (AR mRNA [1]; HuVEC cells, electroporation) was 50 nM and the “inhibition of AR mRNA at 46.9 nM” value (AR mRNA [1]; HuVEC cells, electroporation, 46.9 nM ASO) was 39%. For the same substance, the “inhibition of AR mRNA at 187.5 nM” value (AR mRNA [1]; HuVEC cells, electroporation, 187.5 nM ASO) was 75%, the “inhibition of AR mRNA at 750.0 nM” value (AR mRNA [1]; HuVEC cells, electroporation, 750.0 nM ASO) was 93% and the “inhibition of AR mRNA at 3000.0 nM” value (AR mRNA [1]; HuVEC cells, electroporation, 3000.0 nM ASO) was 98%. For the same substance, the IC50 (AR mRNA [1]; HuVEC, ~16 h, Table 15) was 50 nM and the “% inhibition” value (AR mRNA [2]; 1,000 nM ASO, ~24 h, Table 13) was 90%.
In the case of “583559 (antisense kA*kG*kT*d[5mC]*dT*dT*dT*dA*dG*d[5mC]*dA*dG*d[5mC]*kT*kT*kT) [compound 583559]”, the “percent inhibition of AR, 46.9 nM” value (AR mRNA [1]; Table 29, 46.9 nM, HuVEC, electroporation, approximately 16 hours) is reported as 30%, the “percent inhibition of AR, 187.5 nM” value (AR mRNA [1]; Table 29, 187.5 nM, HuVEC, electroporation, approximately 16 hours) is reported as 49% and the “percent inhibition of AR, 750.0 nM” value (AR mRNA [1]; Table 29, 750.0 nM, HuVEC, electroporation, approximately 16 hours) is reported as 63%. The “percent inhibition of AR, 3000.0 nM” value (AR mRNA [1]; Table 29, 3000.0 nM, HuVEC, electroporation, approximately 16 hours) was 80%, the IC50 (AR mRNA [1]; Table 29, HuVEC, electroporation, approximately 16 hours) was 220 nM and the “% inhibition” value (AR mRNA [2]; 500 nM ASO, ~24 h, Table 16) was 52%.
With “584263 (kT*kA*kG*dG*dG*dT*dT*dT*dG*dG*dT*d[5mC]*dA*kG*kA*kA; antisense) [compound 584263]” the “percent inhibition of AR, 46.9 nM” value (AR mRNA [1]; [9]) was 9%, the “percent inhibition of AR, 187.5 nM” value (AR mRNA [1]; [10]) was 24% and the “percent inhibition of AR, 750.0 nM” value (AR mRNA [1]; [11]) was 67%. For the same substance, the “percent inhibition of AR, 3000.0 nM” value (AR mRNA [1]; [12]) was 90%, the IC50 (AR mRNA [1]; [13]) was 340 nM and the “% inhibition” value (AR mRNA [2]; Table 25, 1,000 nM oligonucleotide, electroporation, approximately 24 hours, relative to untreated control) was 56%.
